Measured values taken from the Kinase Knowledgebase extract (Sharma et al. 2016).
“And” between values parts separate entries of the source, which are not always exact repeats. Identical values can stand only once.

Experiments:
EGFR [1] = target: EGFR (UniProt P00533)
EGFR [2] = target: EGFR (UniProt P00533); remark: listed apart in the source
EGFR [3] = target: EGFR (UniProt P00533); remark: listed apart in the source
CDK2 = CDK2 (UniProt P24941); assay: Enzyme Assay
EGFR (mouse) = EGFR (mouse) (UniProt P00533); conditions: nih3t3

Chain of EGFR (P00533 whole entry, looked up): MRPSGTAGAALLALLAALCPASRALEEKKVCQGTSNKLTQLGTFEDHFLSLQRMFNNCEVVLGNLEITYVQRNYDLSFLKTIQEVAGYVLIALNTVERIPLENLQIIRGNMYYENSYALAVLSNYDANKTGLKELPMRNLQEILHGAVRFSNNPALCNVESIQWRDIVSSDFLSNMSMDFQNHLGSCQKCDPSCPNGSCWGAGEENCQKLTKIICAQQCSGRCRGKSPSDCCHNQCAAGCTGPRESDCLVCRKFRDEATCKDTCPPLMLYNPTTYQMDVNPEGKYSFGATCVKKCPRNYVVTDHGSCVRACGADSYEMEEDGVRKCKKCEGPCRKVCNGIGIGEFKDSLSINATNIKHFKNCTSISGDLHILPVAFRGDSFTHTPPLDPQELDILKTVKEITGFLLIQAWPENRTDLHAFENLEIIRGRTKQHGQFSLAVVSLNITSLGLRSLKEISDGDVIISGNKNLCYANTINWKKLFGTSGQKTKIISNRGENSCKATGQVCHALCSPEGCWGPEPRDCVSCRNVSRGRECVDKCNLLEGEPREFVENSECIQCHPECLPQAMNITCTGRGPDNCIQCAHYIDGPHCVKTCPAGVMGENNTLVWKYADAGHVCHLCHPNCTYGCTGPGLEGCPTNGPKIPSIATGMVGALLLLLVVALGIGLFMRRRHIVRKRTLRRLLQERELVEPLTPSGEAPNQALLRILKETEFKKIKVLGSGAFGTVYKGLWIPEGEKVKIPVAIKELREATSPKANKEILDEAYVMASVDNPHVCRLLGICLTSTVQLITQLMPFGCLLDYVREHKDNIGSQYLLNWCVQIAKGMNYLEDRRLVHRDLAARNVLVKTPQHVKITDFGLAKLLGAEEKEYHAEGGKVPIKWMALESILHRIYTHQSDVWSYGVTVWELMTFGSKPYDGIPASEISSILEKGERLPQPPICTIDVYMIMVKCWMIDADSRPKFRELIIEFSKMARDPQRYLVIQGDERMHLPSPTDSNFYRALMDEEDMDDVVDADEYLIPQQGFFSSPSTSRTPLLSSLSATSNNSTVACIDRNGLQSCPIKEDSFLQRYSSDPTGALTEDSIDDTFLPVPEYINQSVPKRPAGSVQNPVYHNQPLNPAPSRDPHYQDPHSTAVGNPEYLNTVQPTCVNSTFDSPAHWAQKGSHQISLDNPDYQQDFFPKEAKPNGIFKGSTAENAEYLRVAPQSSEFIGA

| Compound | IC50 (EGFR [1]) [µM] | IC50 (EGFR [2]) [µM] | IC50 (EGFR [3]) | IC50 (CDK2) [µM] | IC50 (EGFR (mouse)) [µM] |
| --- | --- | --- | --- | --- | --- |
| COc1ccccc1-c1ccc2c(c1)NC(=O)/C2=C\c1[nH]c(C)cc1C | > 100 | > 100 | – | – | – |
| Cc1cc(C)c(/C=C2\C(=O)Nc3cc(-c4ccccc4)ccc32)[nH]1 | > 100 | > 100 | > 50 µM | – | – |
| O=C(O)CCc1c(/C=C2\C(=O)Nc3cc(-c4ccccc4)ccc32)[nH]c2c1CCCC2 | > 100 | > 100 | – | – | – |
| COc1cccc(-c2ccc3c(c2)NC(=O)/C3=C\c2ccc(N3CCN(C=O)CC3)cc2)c1 | > 100 | > 100 | > 50 µM | – | – |
| COc1ccccc1-c1ccc2c(c1)NC(=O)/C2=C\c1[nH]c2c(c1C)CCCC2 | > 100 | > 100 | > 50 µM | – | – |
| CC(C)(C)c1cc(C(=O)Nc2cccc(C(F)(F)F)c2)n(Cc2ccccc2)n1 | – | – | 53.4 µM | – | – |
| O=C1Nc2ccc(Cl)cc2/C1=C\c1c[nH]cn1 | – | – | – | < 0.78 | – |
| Cc1ccc(Cn2nc(C)cc2C(=O)Nc2cccc(C(F)(F)F)c2)cc1 | – | – | 6.3 µM and 9.8 µM | – | – |
| CC(C)(C)c1cc(C(=O)Nc2ccc(C(F)(F)F)cn2)n(Cc2ccccc2)n1 | – | – | 46.8 µM | – | – |
| O=C1Nc2cc(-c3ccccc3)ccc2/C1=C/c1cc2c([nH]1)CCCC2 | > 100 | > 100 | > 50 µM | – | – |
| COc1cccc(-c2ccc3c(c2)NC(=O)/C3=C\c2[nH]c3c(c2C)CCCC3)c1 | > 100 | > 100 | > 50 µM | – | – |
| CC(C)(C)c1cc(C(=O)Nc2cccc3c2C(=O)c2ccccc2-3)n(Cc2ccccc2)n1 | – | – | > 50 µM | – | – |
| CC(C)(C)c1cc(C(=O)Nc2ccncc2)n(Cc2ccccc2)n1 | – | – | 28.2 µM | – | – |
| O=C1Nc2ccc(F)cc2/C1=C\c1c[nH]cn1 | – | – | – | 7.7 | – |
| CC(C)(C)c1cc(C(=O)Nc2cccc(-c3ccccc3)c2)n(Cc2ccccc2)n1 | – | – | > 50 µM | – | – |
| COc1ccc(NC(=O)c2cc(C(C)(C)C)nn2Cc2ccccc2)cc1-c1ccccc1 | – | – | > 50 µM | – | – |
| COc1ccc(-c2ccccc2)cc1NC(=O)c1cc(C(C)(C)C)nn1Cc1ccccc1 | – | – | > 50 µM | – | – |
| COc1ccccc1-c1ccc2c(c1)NC(=O)/C2=C\c1[nH]c2c(c1CCC(=O)O)CCCC2 | > 100 | > 100 | – | – | – |
| Nc1ccc2c(c1)/C(=C\c1c[nH]cn1)C(=O)N2 | – | – | – | < 0.78 | – |
| CCOc1cccc(-c2ccc3c(c2)NC(=O)/C3=C\c2ccc(C)s2)c1 | > 100 | > 100 | > 50 µM | – | – |
| O=C1Nc2cc(-c3ccccc3)ccc2/C1=C/c1cnc[nH]1 | > 100 | > 100 | > 50 µM | – | – |
| CCOc1cccc(-c2ccc3c(c2)NC(=O)/C3=C\c2[nH]c(C)cc2C)c1 | > 100 | > 100 | > 50 µM | – | – |
| COc1cccc(-c2ccc3c(c2)NC(=O)/C3=C\c2cnc[nH]2)c1 | > 100 | > 100 | > 50 µM and 27.4 µM | – | – |
| O=C1Nc2ccc([N+](=O)[O-])cc2/C1=C\c1c[nH]cn1 | – | – | – | < 0.78 | – |

| Compound | IC50 (EGFR [1]) [µM] | IC50 (EGFR [2]) [µM] | IC50 (EGFR [3]) | IC50 (CDK2) [µM] | IC50 (EGFR (mouse)) [µM] |
| --- | --- | --- | --- | --- | --- |
| CCn1c2ccccc2c2cc(NC(=O)c3cc(C(C)(C)C)nn3Cc3ccccc3)ccc21 | – | – | > 50 µM | – | – |
| COc1ccc(NC(=O)c2cc(C(C)(C)C)nn2Cc2ccccc2)c(OC)n1 | – | – | > 100 µM | – | – |
| COc1cccc(-c2ccc3c(c2)NC(=O)/C3=C\c2[nH]c3c(c2CCC(=O)O)CCCC3)c1 | > 100 | 11.4 | 37.1 µM | – | – |
| Cc1ccnc(NC(=O)c2cc(C(C)(C)C)nn2Cc2ccccc2)c1 | – | – | 50.1 µM | – | – |
| Cc1ccc(/C=C2\C(=O)Nc3cc(-c4ccccc4)ccc32)s1 | > 100 | > 100 | > 50 µM | – | – |
| COc1cccc(-c2cc(NC(=O)c3cc(C(C)(C)C)nn3Cc3ccccc3)ccc2OC)c1 | – | – | > 50 µM | – | – |
| CCc1cc(CC)c(/C=C2\C(=O)Nc3cc(-c4cccc(OC)c4)ccc32)[nH]1 | > 100 | > 100 | > 50 µM and 30.9 µM | – | – |
| Cc1cccc2c1/C(=C\c1c[nH]cn1)C(=O)N2 | – | – | – | 1.1 | – |
| CC(C)(C)c1cc(C(=O)Nc2ccc(C(F)(F)F)cc2)n(Cc2ccccc2)n1 | – | – | 15.6 µM | – | – |
| CCc1cc(CC)c(/C=C2\C(=O)Nc3cc(-c4ccc(OC)cc4)ccc32)[nH]1 | > 100 | > 100 | > 50 µM | – | – |
| COc1ccccc1-c1ccc2c(c1)NC(=O)/C2=C\c1cc2c([nH]1)CCCC2 | > 100 | > 100 | 34.1 µM | – | – |
| CC(C)(C)c1cc(C(=O)Nc2cnc3ccccc3c2)n(Cc2ccccc2)n1 | – | – | 10.2 µM | – | – |
| CC(C)(C)c1cc(C(=O)Nc2ccc3oc(=O)c4ccccc4c3c2)n(Cc2ccccc2)n1 | – | – | 43 µM | – | – |
| COc1ccc(-c2ccc3c(c2)NC(=O)/C3=C\c2[nH]c(C)cc2C)cc1 | > 100 | > 100 | > 50 µM | – | – |
| COc1cccc(-c2ccc3c(c2)NC(=O)/C3=C\c2cc3c([nH]2)CCCC3)c1 | > 100 | – | 31.8 µM and > 50 µM | – | – |
| CC(C)(C)c1cc(C(=O)Nc2ccc3c(c2)OCO3)n(Cc2ccccc2)n1 | – | – | 50.1 µM | – | – |
| CC(C)(C)c1cc(C(=O)Nc2ccccc2C(F)(F)F)n(Cc2ccccc2)n1 | – | – | 46.8 µM | – | – |
| COc1c(C(C)C)cc(/C=C2\C(=O)Nc3cc(-c4ccccc4)ccc32)cc1C(C)C | > 100 | > 100 | – | – | – |
| COc1cc2c(cc1OC)/C(=C\c1c[nH]cn1)C(=O)N2 | – | – | – | 2.4 | – |
| COc1ccc(-c2ccc3c(c2)NC(=O)/C3=C\c2ccc(C)s2)cc1 | > 100 | > 100 | > 50 µM | – | – |
| CCOc1cccc(-c2ccc3c(c2)NC(=O)/C3=C\c2[nH]c(CC)cc2CC)c1 | > 100 | > 100 | > 50 µM | – | – |
| COc1ccc(-c2ccc3c(c2)NC(=O)/C3=C\c2cc3c([nH]2)CCCC3)cc1 | > 100 | > 100 | > 50 µM | – | – |
| O=C1Nc2ccccc2/C1=C\c1c[nH]cn1 | – | – | – | < 0.78 | – |
| CC(=O)Nc1ccc2c(c1)C(=O)c1cc(NC(=O)c3cc(C(C)(C)C)nn3Cc3ccccc3)ccc1-2 | – | – | 4.4 µM | – | – |

| Compound | IC50 (EGFR [1]) [µM] | IC50 (EGFR [2]) [µM] | IC50 (EGFR [3]) | IC50 (CDK2) [µM] | IC50 (EGFR (mouse)) [µM] |
| --- | --- | --- | --- | --- | --- |
| CC(C)(C)c1cc(C(=O)Nc2cccnc2)n(Cc2ccccc2)n1 | – | – | > 100 µM | – | – |
| CCc1cc(CC)c(/C=C2\C(=O)Nc3cc(-c4ccccc4OC)ccc32)[nH]1 | > 100 | > 100 | – | – | – |
| Cc1cc(C)c2c(c1)NC(=O)/C2=C/c1c[nH]cn1 | – | – | – | < 0.78 | – |
| CC(C)(C)c1cc(C(=O)Nc2ccccn2)n(Cc2ccccc2)n1 | – | – | > 100 µM | – | – |
| COc1ccc(-c2ccc3c(c2)NC(=O)/C3=C\c2cnc[nH]2)cc1 | > 100 | > 100 | > 50 µM | – | – |
| CCOc1cccc(-c2ccc3c(c2)NC(=O)/C3=C\c2cc3c([nH]2)CCCC3)c1 | > 100 | > 100 | > 50 µM | – | – |
| CCc1cc(CC)c(/C=C2\C(=O)Nc3cc(-c4ccccc4)ccc32)[nH]1 | > 100 | > 100 | > 50 µM | – | – |
| Cc1cnc2ccccc2c1NC(=O)c1cc(C(C)(C)C)nn1Cc1ccccc1 | – | – | 21.2 µM | – | – |
| CC(C)(C)c1cc(C(=O)Nc2cc3ccccc3cn2)n(Cc2ccccc2)n1 | – | – | > 100 µM | – | – |
| CC(C)(C)c1cc(C(=O)c2nccc3ccccc23)n(Cc2ccccc2)n1 | – | – | 22.5 µM | – | – |
| COc1ccc(-c2ccc3c(c2)NC(=O)/C3=C\c2[nH]c3c(c2C)CCCC3)cc1 | > 100 | > 100 | > 50 µM | – | – |
| Cc1cccnc1NC(=O)c1cc(C(C)(C)C)nn1Cc1ccccc1 | – | – | 53.4 µM | – | – |
| CCOc1cccc(-c2ccc3c(c2)NC(=O)/C3=C\c2cnc[nH]2)c1 | > 100 | > 100 | > 50 µM | – | – |
| Cc1cc(C)c(NC(=O)c2cc(C(C)(C)C)nn2Cc2ccccc2)cn1 | – | – | 69.6 µM | – | – |
| COc1cccc(-c2ccc3c(c2)NC(=O)/C3=C\c2[nH]c(C)cc2C)c1 | > 100 | > 100 | > 50 µM and 27.3 µM | – | – |
| CCOc1cccc(-c2ccc3c(c2)NC(=O)/C3=C\c2cc(C(C)C)c(OC)c(C(C)C)c2)c1 | > 100 | > 100 | 19.6 µM | – | – |
| COc1ccc(-c2ccc3c(c2)NC(=O)/C3=C\c2[nH]c3c(c2CCC(=O)O)CCCC3)cc1 | > 100 | > 100 | – | – | – |
| CC(C)(C)c1cc(C(=O)Nc2c(F)c(F)nc(F)c2F)n(Cc2ccccc2)n1 | – | – | 26 µM | – | – |
| COc1ccccc1-c1ccc2c(c1)NC(=O)/C2=C\c1cnc[nH]1 | > 100 | > 100 | – | – | – |
| Cc1ccc(Cn2nc(C)cc2C(=O)Nc2ccc(C(F)(F)F)cc2)cc1 | – | – | 7.1 µM and 9.8 µM | – | – |
| O=C1Nc2c(Br)cc(Cl)cc2/C1=C\c1c[nH]cn1 | – | – | – | 9.3 | – |
| CC(C)(C)c1cc(C(=O)Nc2ccc(O)c(-c3cccc(-c4ccccc4)c3)c2)n(Cc2ccccc2)n1 | – | – | > 50 µM | – | – |
| Cc1cc(/C=C2/C(=O)Nc3ccccc32)c(C)c2c1[nH]c1ccccc12 | – | – | 7.03 µM | – | > 100 |
| COc1cccc(-c2ccc3c(c2)NC(=O)/C3=C\c2cc(C(C)C)c(OC)c(C(C)C)c2)c1 | > 100 | > 100 | 13.7 µM | – | – |
